# Patent US10758522B2, “Small molecule analogs of the nemo binding peptide” (THE SCRIPPS RESEARCH INSTITUTE, priority 2015, dated 2020)
# How the values were obtained:
# [1] = test system: NF-κB; experiment: Firefly luciferase NF-κB reporter assay in TNF-α-stimulated HEK293 cells; assay type: cell-based; settings: 293 NF-κB luciferase reporter cells, 10 ng/ml TNF-α; compound 12909780 at 100 μM
# Description: This model was used to screen a subset of the drug-like ZINC 8.0 database set (˜900,000 compounds) (Irwin et al., 2005). We were able to identify 161 hits that matched at least 6 features out of eight of the pharmacophore model. […] Two compounds termed NBDA-1 (Zinc-13) and NBDA-2 (Zinc-5), successfully passed these filters (See FIG. 4) and were purchased for biological testing. The compounds were then tested for ability to inhibit TNF-alpha-mediated induction of NF-κB activity in a 293 cells stably modified with a NF-κB luciferase reporter.
# The activation of NF-κB was then quantitated by measuring the level of luciferase activity. […] Also, protein extracts were prepared from the same cells and the level of phospho-IkB determined, a marker of IKK activity.
# To test if the small molecules identified by the in silico screen inhibit NF-κB activation, a HEK293 cell line stably expressing a luciferase reporter driven by a synthetic, NF-κB-dependent promoter was utilized. To induce NF-κB activation, cells were treated with 10 ng/ml of TNF-α and harvested three hours post-treatment for analysis of luciferase activity. […] To determine if compound 12909780 inhibited NF-κB in a dose dependent manner, concentrations were tested at 0, 6.25, 25, 50 and 100 μM.
# HEK293 cells stably transfected with luciferase reporter plasmid driven by NF-κB were seeded in 96-well plate in triplicate and pretreated with DMSO or varying small molecules at indicated concentration for 30 min, followed by the stimulation of 10 ng/ml of TNFα for 3 hr. Cell were washed with PBS once and harvested in passive lysis buffer. Luciferase assay (Promega) was performed using a luminometer according to the manufacturer's instructions.
# [2] = target: T1, IKK complex (IKKß, IKKα and NEMO) (Homo sapiens, UniProt Q9Y6K9); experiment: Co-immunoprecipitation of NEMO with IKKß in 293 cells; assay type: cell-based; settings: Zinc-5 at 4 hours, Zinc-13 at 1 hour, NBD peptide at 4 hours
# T1 construct: analyzed by Western blot for the level of co-precipitated NEMO; endogenous in cells; host or cells: 293 (HEK293) cells
# Source text: FIG. 8 is a bar graph showing the inhibition of TNFα by NBDA-1 (Zinc-13). […] In addition, we have examined the ability of the compounds to disrupt the IKK complex, comprised of IKKß, IKKα and NEMO.
# A non-functional, related compound Zinc-7 had no effect.
# [3] = target: NEMO (Homo sapiens, UniProt Q9Y6K9); settings: cited from earlier work; for IC50: read-out: IC50, affinity to NEMO
# [4] = test system: NF-κB target genes; experiment: qRT-PCR of NF-κB target genes in LPS-stimulated Raw 264.7 cells; assay type: cell-based, mouse; settings: for transcription of NF-κB target genes (COX2, IL-6, IL-1β, TNF-α, IκBα, iNOS): Raw 264.7, 1 ug/ml LPS 2 hr, mimetics 50 μM, IKKi VII 2 μM, 8K-NBD 400 μM
# Description: Effect of the NBD mimetics on expression of NF-kB regulated genes in the Raw mouse macrophage cell line. Treatment of the Raw cells with the indicated drugs prior to addition of LPS reduced NF-kB-mediated gene expression as measured by RT-PCR.
# To determine whether the inhibitory effect of the mimetics is TNF-α-dependent, LPS-mediated NF-κB activation via TLR4 was examined to determine a broader inhibitory effect of the novel NBD mimetics. NF-κB was stimulated in Raw 264.7 by 1 ug/ml of LPS for 2 hr and genes transcriptionally regulated by NF-κB were determined by qRT-PCR analysis. Both an IKK active site inhibitor IKKi VII (2 μM) and the 8K-NBD peptide (400 μM) were included as positive controls and the expression of COX2, IL-6, IL-1β, TNF-α, IκBα and iNOS were assessed.
# Raw 264.7 cells were treated with a 50 μM solution of the SR compound for 30 minutes, and then the mRNA was harvested 2 hours after addition of 1 μg/mL LPS.
# Snap frozen tissues were preserved in RNAlater RNA stabilization solution (ThermoFisher) before processed. Total RNA was extracted from cells or tissues using TRIZOL reagent (Life Technologies) and 1500 ng of messenger RNA (mRNA) was subjected to synthesize complementary DNA (cDNA) using SuperScript VILO cDNA synthesis kit. qRT-PCR was performed in a StepOnePlus Real-Time PCR system using Platinum SYBR Green qPCR SuperMix-UDG (ThermoFisher). Target gene expression was calculated using the comparative CT method (ΔΔCT) and normalized to an internal control gene Actb (β-actin). Primers used are as follows: Ptgs2 (COX-2) forward: […]; Ptgs2 (COX-2) reverse: […]; Nfkbia (IκBα) forward: […]; Nfkbia (IκBα) reverse: […]; Il1b (IL-1β) forward: […]; Il1b (IL-1β) reverse: […]; Nos2 (iNOS) forward: […]; Nos2 (iNOS) reverse: […]; Tnf (TNF) forward: […]; Tnf (TNF) reverse: […]; Il6 (IL-6) forward: […]; Il6 (IL-6) reverse: […]. Actb (β-actin) forward: […]; Actb (β-actin) reverse: […];
# [5] = test system: embryonic fibroblasts from Ercc1−/− mice; experiment: Senescence rescue assay in ERCC1-deficient murine embryonic fibroblasts (SA-ß-gal); assay type: cell-based, mouse; settings: oxidative stress conditions (20% O2)
# Source text: In an attempt to identify new drugs able to improve healthspan, we have developed an assay for screening for drugs able to rescue primary “aged” fibroblasts from senescence. This assay uses murine embryonic fibroblasts (MEFs) from mice with accelerated aging due to a deficiency in an important DNA repair pathway, ERCC1-XPF. These MEFs undergo rapid senescence in culture, especially when grown under the high oxygen conditions that confers oxidative stress (FIGS. 18 and 19).
# [6] = test system: IL-6; experiment: IL-6 ELISA in LPS-stimulated Raw 264.7 cells; assay type: cell-based, mouse; settings: Raw 264.7, 1 ug/ml LPS, supernatant at 24 hr
# Description: To confirm the qRT-PCR result, LPS-mediated IL-6 production was analyzed in Raw 264.7 cells by ELISA. […] Moreover, SR11481 appears to work more efficiently at a lower concentration around 25 μM. Taken together, four lead compounds were identified through seven rounds of optimization and modification.
# Enzyme-Linked Immunosorbent Assay (ELISA). Raw264.7 cells were grown in a 96-well plate and pretreated with vehicle, IKKi VII (2 uM) and small molecules (at indicated concentration) for 1 hr, followed by the stimulation with 1 ug/ml of LPS. Supernatant was collected 24 hr later for ELISA analysis. IL-6 concentration was measured using a mouse IL-6 ELISA kit (BD) according to the manufacturer's instructions.
# [7] = Pharmacokinetics study after ip injection; assay type: in vivo; settings: mice, 10 mg/kg ip, 2 hr
# Description: To determine the stability of the NBD mimetics in vivo, the pharmacokinetics of the compounds was determined in serum following ip injection.
# The pharmacokinetic profiles of the NBD mimetics were determined in male C57BL/6J mice (n=3). The drugs were formulated in 10:10:80 of DMSO:Tween 80:water and were dosed by intraperitoneal injection at a final dose of 10 mg/kg. Blood, brain, muscle, spleen, and liver were collected 2 hr post-treatment and were analyzed by mass spectrometry by following the protocol described in ref. 215 (42).
# [8] = test system: IKKβ-NEMO interaction; experiment: Immunoprecipitation of NEMO and IKKβ immunoblot in Raw 264.7 macrophages and HEK293 cells; assay type: cell-based; settings: Raw 264.7 macrophages / HEK293; mimetics 100 μM, 8K-NBD 400 μM
# Description: The NBD mimetics reduce the interaction between IKKg (NEMO) and IKKß. The indicated concentrations of the drugs were added to HEK 293 or Raw 264.7 cells and cell extracts prepared 30 minutes later. Following immunoprecipitation (IP) of NEMO, the Western was probed for IKKß.
# After treatment with the mimetics or NBD peptide, NEMO was immunoprecipitated by an anti-NEMO antibody and IKKβ was immunoblotted to determine the binding of IKKβ to NEMO.
# HEK293 or Raw264.7 cells were seeded at 1×10^6 cells/well in 6-well plates and treated with vehicle, small molecule or NBD peptide for indicated time. Cells were lysed in NP-40 lysis buffer supplemented with 1× protease inhibitor cocktails (sigma). Protein was immunoprecipitated by incubating 150 μg of lysate with 1 μg of anti-NEMO antibody (Santa Cruz) on a rotating shaker at 4° C. for 4 hrs, followed by incubation with 20 ul of Protein A agarose beads (ThermoFisher) for 1 hr. Beads were washed in NP40 buffer 3 times and PBS once. Protein was then denatured in SDS-sample buffer and resolved by MINI-PROTEAN TGX 4-15% SDS-PAGE. Anti-IKKβ (1:1000 CST) was used to assess binding of IKKβ to NEMO and anti-NEMO (1:1000 CST) or IgG were used to as a loading control.
# Chain of NEMO (Q9Y6K9 whole entry, species assumed): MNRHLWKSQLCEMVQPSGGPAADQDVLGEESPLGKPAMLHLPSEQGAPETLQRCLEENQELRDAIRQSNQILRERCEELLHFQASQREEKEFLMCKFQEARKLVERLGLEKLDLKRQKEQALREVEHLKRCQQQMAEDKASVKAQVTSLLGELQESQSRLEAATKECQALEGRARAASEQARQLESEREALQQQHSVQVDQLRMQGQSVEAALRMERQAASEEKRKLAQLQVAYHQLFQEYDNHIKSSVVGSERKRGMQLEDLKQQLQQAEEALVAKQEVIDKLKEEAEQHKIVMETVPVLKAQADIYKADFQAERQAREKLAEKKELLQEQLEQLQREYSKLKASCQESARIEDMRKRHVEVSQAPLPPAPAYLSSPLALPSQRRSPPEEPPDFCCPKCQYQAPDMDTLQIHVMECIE
# T1 sequence (Q9Y6K9 whole entry, one chain of several): as the sequence (Q9Y6K9 whole entry, species assumed) above
compound,measurement,setting,value
"O=C(COC(=O)Cc1ccccc1)Nc1ncc(Cl)cc1Cl [ZINC9, 2-phenylacetic-acid-[2-[(3,5-dichloro-2-pyridyl)amino]-2-keto-ethyl]-ester]","inhibition of TNF-α-induced NF-κB activation (luciferase reporter), in words",[1],lowered NF-κB activity robustly
"O=C(COC(=O)c1c2ccccc2cc2ccccc12)Nc1ncc(C(F)(F)F)cc1Cl [ZINC7, anthracene-9-carboxylic-acid-[2-[[3-chloro-5-(trifluoromethyl)-2-pyridyl]amino]-2-keto-ethyl]-ester]",level of NEMO co-immunoprecipitated with IKKß,[2],had no effect
"traditional 11 amino acid NEMO binding domain peptide of IKKβ, amino acids 735-745, TALDWSWLQTE [11-mer NBD peptide]",IC50,[3],~100 µM
"IKKβ-derived peptide (701-746): longer IKKβ-derived peptide (701-746) containing all residues and domains (PAKKSEELVAEAHNLCTLLENAIQDTVREQDQSFTALDWSWLQTEE; UniProt O14920 701-746, looked up, fragment)",IC50,[3],~0.01 µM
"O=C(c1ccc(Nc2nccc(-c3cc4ccccc4s3)n2)cc1)N1CCC(N2CCCC2)CC1 [IKKi VII, reference compound]","transcription of NF-κB target genes (COX2, IL-6, IL-1β, TNF-α, IκBα, iNOS)",[4],able to inhibit most NF-κB target gene expression
same,iNOS expression,"[4]; Raw 264.7, LPS",failed to downregulate iNOS expression
"mutated 11-mer NBD peptide (735-745): 11-mer NBD peptide with substitutions of arginine for W741 and W739 (TALDRSRLQTE; NEMO binding domain; UniProt O14920 735-745, looked up, variant W739R W741R)",binding to NEMO,[3]; W741 and W739 substituted by arginine,unable to bind to NEMO
CC(=O)Oc1ccccc1C(=O)O [aspirin],senescence (SA-ß-gal staining) of ERCC1-deficient MEFs,[5],most effective for rescuing senescence
"O=C(COCCc1cc(F)cc(F)c1)Nc1ccc(Cl)cn1 [SR12454, N-(5-chloropyridin-2-yl)-2-(3,5-difluorophenethoxy)acetamide]",LPS-mediated mIL-6 production (ELISA),[6],decreasing by half at 25 μM
same,stability in serum after ip injection,[7],moderate stability
same,"disruption of IKKβ-NEMO interaction (NEMO IP, IKKβ blot)",[8],disruption of the association between NEMO and IKK-β
same,"transcription of NF-κB target genes (COX2, IL-6, IL-1β, TNF-α, IκBα, iNOS)",[4],significantly downregulate the transcription of all NF-κB target genes tested
"O=C(COC(=O)Cc1cc(F)cc(F)c1)Nc1ccc(Cl)cn1 [SR11481, 2-((5-chloropyridin-2-yl)amino)-2-oxoethyl 2-(3,5-difluorophenyl)acetate]",LPS-mediated mIL-6 production (ELISA),[6],reduction in the accumulation of IL-6 protein at 24 hr
same,stability in serum after ip injection,[7],extremely unstable with undetectable levels at 2 hr
same,"disruption of IKKβ-NEMO interaction (NEMO IP, IKKβ blot)",[8],disruption of the association between NEMO and IKK-β
same,"transcription of NF-κB target genes (COX2, IL-6, IL-1β, TNF-α, IκBα, iNOS)",[4],failed to suppress all NF-κB target genes
CC(Cc1ccc(O)c(O)c1)C(C)Cc1ccc(O)c(O)c1 (centres unmarked) [NDGA],senescence (SA-ß-gal staining) of ERCC1-deficient MEFs,[5],most effective for rescuing senescence
